Reference: US5886172A, “Carbapenem-3-carboxylic acid ester derivatives” (Lederle (Japan) Ltd., priority 1995, dated 1999)
Converted amounts (≈) assume the structure as drawn. Values belong to the molecule of their own block, whether it stands above or below them.

What was measured:
[1] = Stability Test (storage stability, residual activity by HPLC); type: physicochemical; details: for Residual activity, initial day: assumed to be 100%; for remaining at 730 h / Residual activity, 1 month: 1 month; for Residual activity, 1 month: 43800 min; for Residual activity, 3 months: 131400 min; for Retention of potency on storage: conclusion from Table 2
Protocol: Storage stability of (1-methylcyclohexane-carboxy)methyl (1R,5S,6S)-2-[(1-(1,3-thiazolin-2-yl)azetidin-3-yl)thio]-6-[(R)-1-hydroxyethyl]-1-methyl-carbapen-2-em-3-carboxylate [Compound (24)] was tested in comparison with its amorphous form and (cyclohexanecarboxy)methyl (1R,5S,6S)-2-[(1-(1,3-thiazolin-2-yl)azetidin-3-yl)thio]-6-[(R)-1-hydroxyethyl]-1-methyl-carbapen-2-em-3-carboxylate [Compound (C)], which is disclosed in European Patent Publication 632,039 A1.
Each compound in an amount of 20 mg was put in a glass bottle, and left to stand for 3 months in a constant-temperature chamber at 40° C. and at 40° C. /75% of humidity. The activity of each compound was assayed by HPLC after 1 month and 3 months, respectively. Assuming the activity at the beginning (initial day) to be 100%, the decrease in the activity is shown by percent residual activity in Table 2.

[2] = test system: S. enteritidis G14; assay: Antibacterial activity, agar plate dilution method (MIC); type: cell-based; details: Salmonella enterica, 37° C., 18 hours
Protocol: (§1) Antibacterial activity was tested by using an agar plate dilution method in accordance with the standard method of the Japanese Chemotherapy Society [Chemotherapy, vol. 29, 76-79 (1981)].
(§2) Mueller-Hinton (MH) agar liquid media of the test microorganisms were cultured overnight at 37° C. and the resultant culture media were diluted with a buffered saline gelatin (BSG) solution to contain approximately 10^5 cells of the test microorganisms per milliliter. Then, about 5 microliters each of the diluted solutions were inoculated on MH agar media containing the test compound by using a microplanter.
(§3) The test microorganism strains used in this test were all standard ones. The test compound used herein was Compound (22) obtained in Preparation 6, i.e., the compound of formula (II), which is the active metabolite of the compounds of formula (I).

[3] = test system: S. paratyphi 1015; assay: as above; type: cell-based; details: Salmonella enterica, 18 h
Protocol: as §1, §2, §3

[4] = test system: E. aerogenes ATCC 13048; assay: as above; type: cell-based; details: Klebsiella aerogenes, ATCC13048, 37° C., 18 hours
Protocol: as §1, §2, §3

[5] = test system: K. pneumoniae PCI-602; assay: as above; type: cell-based; details: Klebsiella pneumoniae, PCI602, 37° C., 18 hours
Protocol: as §1, §2, §3

[6] = test system: S. schottmuelleri 8006; assay: as above; type: cell-based; details: 37° C., 18 hours
Protocol: as §1, §2, §3

[7] = test system: E. coli NIHJ JC-2; assay: as above; type: cell-based; details: Escherichia coli, NIHJJC2, 37° C., 18 hours
Protocol: as §1, §2, §3

[8] = test system: M. morganii IFO 3848; assay: as above; type: cell-based; details: Morganella morganii, IFO3848, 37° C., 18 hours
Protocol: as §1, §2, §3

[9] = test system: B. subtilis ATCC 6633; assay: as above; type: cell-based; details: Bacillus subtilis, ATCC6633, 37° C., 18 hours
Protocol: as §1, §2, §3

[10] = test system: S. aureus Terajima; assay: as above; type: cell-based; details: Staphylococcus aureus, 37° C., 18 hours
Protocol: as §1, §2, §3

[11] = test system: P. mirabilis IFO 3849; assay: as above; type: cell-based; details: Proteus mirabilis, IFO3849, 37° C., 18 hours
Protocol: as §1, §2, §3

[12] = test system: S. aureus FDA209P JC-1; assay: as above; type: cell-based; details: Staphylococcus aureus, 37° C., 18 hours
Protocol: as §1, §2, §3

[13] = test system: S. marcescens IAM 1184; assay: as above; type: cell-based; details: Serratia marcescens, IAM1184, 37° C., 18 hours
Protocol: as §1, §2, §3

[14] = test system: M. luteus ATCC 9341; assay: as above; type: cell-based; details: Micrococcus luteus, ATCC9341, 37° C., 18 hours
Protocol: as §1, §2, §3

[15] = test system: S. typhi 901; assay: as above; type: cell-based; details: Salmonella enterica, 18 h
Protocol: as §1, §2, §3

[16] = test system: P. vulgaris HX-19; assay: as above; type: cell-based; details: Proteus vulgaris, HX19, 37° C., 18 hours
Protocol: as §1, §2, §3

[17] = test system: S. aureus MS353; assay: as above; type: cell-based; details: Staphylococcus aureus, 37° C., 18 hours
Protocol: as §1, §2, §3

[18] = test system: E. coli K-12 C600; assay: as above; type: cell-based; details: Escherichia coli, K12C600, 37° C., 18 hours
Protocol: as §1, §2, §3

[19] = test system: P. rettgeri IFO 3850; assay: as above; type: cell-based; details: Providencia rettgeri, IFO3850, 37° C., 18 hours
Protocol: as §1, §2, §3

[20] = test system: S. typhimurium 11D971; assay: as above; type: cell-based; details: Salmonella enterica, 37° C., 18 hours
Protocol: as §1, §2, §3

[21] = test system: S. pyogenes Cook; assay: as above; type: cell-based; details: Streptococcus pyogenes, 37° C., 18 hours
Protocol: as §1, §2, §3

[22] = test system: E. cloacae 963; assay: as above; type: cell-based; details: Enterobacter cloacae, 37° C., 18 hours
Protocol: as §1, §2, §3

[23] = test system: P. vulgaris OX-19; assay: as above; type: cell-based; details: Proteus vulgaris, OX19, 37° C., 18 hours
Protocol: as §1, §2, §3

[24] = solid storage, 40° C./75% humidity, HPLC, initial day = 100%
[25] = 40° C., HPLC, initial day = 100%
[26] = 40° C., 3 months, HPLC, initial day = 100%

Residual activity, initial day ([1]; 40° C./75% humidity): 100%
Residual activity, initial day ([1]; 40° C.): 100%
remaining at 730 h [1, 24]: 73.7%
remaining at 730 h ([1]; solid storage, 40° C., HPLC, initial day = 100%): 98.9%
remaining at 2190 h ([1]; solid storage, 40° C., 3 months, HPLC, initial day = 100%): 94.2%
SMILES: C[C@@H](O)[C@H]1C(=O)N2C(C(=O)OCOC(=O)C3CCCCC3)=C(SC3CN(C4=NCCS4)C3)[C@H](C)[C@H]12 [Compound (C) (Crystalline), (cyclohexanecarboxy)methyl (1R,5S,6S)-2-[(1-(1,3-thiazolin-2-yl)azetidin-3-yl)thio]-6-[(R)-1-hydroxyethyl]-1-methyl-carbapen-2-em-3-carboxylate, reference compound]

Residual activity, initial day ([1]; 40° C./75% humidity): 100%
Residual activity, 1 month [1, 25]: 67.5%
Residual activity, 3 months [1, 26]: 36.8%
Residual activity, initial day ([1]; 40° C.): 100%
Retention of potency on storage ([1]; listed as amorphous form): rapidly loses its potency
SMILES: C[C@@H](O)[C@H]1C(=O)N2C(C(=O)OCOC(=O)C3(C)CCCCC3)=C(SC3CN(C4=NCCS4)C3)[C@H](C)[C@H]12 [Compound (24) (Amorphous), (1-methylcyclohexane-carboxy)methyl (1R,5S,6S)-2-[(1-(1,3-thiazolin-2-yl)azetidin-3-yl)thio]-6-[(R)-1-hydroxyethyl]-1-methyl-carbapen-2-em-3-carboxylate]

Residual activity, initial day ([1]; 40° C./75% humidity): 100%
Residual activity, 1 month [1, 25]: 99.4%
Residual activity, 3 months [1, 26]: 99.2%
Residual activity, initial day ([1]; 40° C.): 100%
remaining at 730 h [1, 24]: 98.9%
SMILES: C[C@@H](O)[C@H]1C(=O)N2C(C(=O)OCOC(=O)C3(C)CCCCC3)=C(SC3CN(C4=NCCS4)C3)[C@H](C)[C@H]12 [Compound (24) (Crystalline), (1-methylcyclohexane-carboxy)methyl (1R,5S,6S)-2-[(1-(1,3-thiazolin-2-yl)azetidin-3-yl)thio]-6-[(R)-1-hydroxyethyl]-1-methyl-carbapen-2-em-3-carboxylate]
Retention of potency on storage ([1]; listed as crystalline form of Compound (24)): retains its potency over a long period of time

SMILES: C[C@@H](O)[C@H]1C(=O)N2C(C(=O)O)=C(SC3CN(C4=NCCS4)C3)[C@H](C)[C@H]12 [Compound (22), (1R,5S,6S)-2-[(1-(thiazolin-2-yl)azetidin-3-yl)thio]-6-[(R)-1-hydroxyethyl]-1-methyl-carbapen-2-em-3-carboxylic acid]
MIC [2]: 0.39 µg/mL (≈ 1.02 µM)
MIC [3]: 0.05 µg/mL (≈ 0.13 µM)
MIC [4]: 0.1 µg/mL (≈ 0.261 µM)
MIC [5]: 0.013 µg/mL (≈ 0.0339 µM)
MIC [6]: 0.025 µg/mL (≈ 0.0652 µM)
MIC [7]: 0.013 µg/mL (≈ 0.0339 µM)
MIC [8]: 0.39 µg/mL (≈ 1.02 µM)
MIC [9]: 0.025 µg/mL (≈ 0.0652 µM)
MIC [10]: ≤ 0.006 µg/mL
MIC [11]: 0.39 µg/mL (≈ 1.02 µM)
MIC [12]: 0.013 µg/mL (≈ 0.0339 µM)
MIC [13]: 0.05 µg/mL (≈ 0.13 µM)
MIC [14]: 0.2 µg/mL (≈ 0.522 µM)
MIC [15]: ≤ 0.006 µg/mL
MIC [16]: 0.1 µg/mL (≈ 0.261 µM)
MIC [17]: ≤ 0.006 µg/mL
MIC [18]: 0.1 µg/mL (≈ 0.261 µM)
MIC [19]: 0.39 µg/mL (≈ 1.02 µM)
MIC [20]: 0.025 µg/mL (≈ 0.0652 µM)
MIC [21]: ≤ 0.006 µg/mL
MIC [22]: 0.05 µg/mL (≈ 0.13 µM)
MIC [23]: 0.1 µg/mL (≈ 0.261 µM)
